According to EP0434057B1, “Indolocarbazole derivatives, processes for their preparation and their use” (GÖDECKE AKTIENGESELLSCHAFT, priority 1989, dated 1991):
Where two headings read alike, the source gives them in different places.

Tests used:
[1] = target: tyrosinspezifischen Kinase (T-Kinase); assay: Inhibition of tyrosine-specific kinase (literature method); format: biochemical; details: read-out: Inhibierung von Proteinkinasen (IC50, µM) T-Kinase
From the text: (§1) Die Bestimmung der Inhibierung von A-, G-, MLC- oder T-Kinase erfolgte nach den in der Literatur beschriebenen Verfahren (Gill, G.N., Walton M., Advances in cyclic nucleotide research, Vol. 10, herausgegeben von G. Brooker und G.A. Robinson, Raven Press, New York, 1979; Eur. J. Biochem. 1986, 158, 203; Biochem. J. 1984, 218, 863; Analyt. Biochem. 1983, 135, 37; Mol. Immunol. 1989, 26, 897).

[2] = target: T1, cGMP-abhängigen Proteinkinase (G-Kinase) (Bos taurus, UniProt P00516); assay: Inhibition of cGMP-dependent protein kinase (literature method); format: biochemical; details: read-out: Inhibierung von Proteinkinasen (IC50, µM) G-Kinase
T1 sequence (P00516 2-671): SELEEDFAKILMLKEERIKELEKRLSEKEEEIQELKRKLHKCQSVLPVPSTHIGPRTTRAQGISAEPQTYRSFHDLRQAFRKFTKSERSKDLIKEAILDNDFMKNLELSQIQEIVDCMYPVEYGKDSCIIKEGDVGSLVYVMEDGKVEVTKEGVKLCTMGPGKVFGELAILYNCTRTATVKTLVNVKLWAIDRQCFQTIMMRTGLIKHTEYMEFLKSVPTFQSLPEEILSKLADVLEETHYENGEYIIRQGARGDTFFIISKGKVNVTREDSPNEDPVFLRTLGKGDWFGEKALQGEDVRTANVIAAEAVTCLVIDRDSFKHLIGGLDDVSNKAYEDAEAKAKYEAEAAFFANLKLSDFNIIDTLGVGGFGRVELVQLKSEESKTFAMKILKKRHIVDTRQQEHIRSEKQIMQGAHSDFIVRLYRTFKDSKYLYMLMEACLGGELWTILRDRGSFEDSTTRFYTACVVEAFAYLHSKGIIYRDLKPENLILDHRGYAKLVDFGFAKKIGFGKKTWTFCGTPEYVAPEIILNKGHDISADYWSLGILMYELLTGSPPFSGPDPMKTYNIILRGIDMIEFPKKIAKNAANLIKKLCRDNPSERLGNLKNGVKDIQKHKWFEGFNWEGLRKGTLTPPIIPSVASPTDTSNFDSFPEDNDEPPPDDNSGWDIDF
From the text: as §1

[3] = target: Myosin Light Chain Kinase (MLC-Kinase) (Gallus gallus, UniProt P11799); assay: Inhibition of myosin light chain kinase (literature method); format: biochemical; details: read-out: Inhibierung von Proteinkinasen (IC50, µM) MLC-Kinase
Chain of Myosin Light Chain Kinase (MLC-Kinase) (P11799 935-1906): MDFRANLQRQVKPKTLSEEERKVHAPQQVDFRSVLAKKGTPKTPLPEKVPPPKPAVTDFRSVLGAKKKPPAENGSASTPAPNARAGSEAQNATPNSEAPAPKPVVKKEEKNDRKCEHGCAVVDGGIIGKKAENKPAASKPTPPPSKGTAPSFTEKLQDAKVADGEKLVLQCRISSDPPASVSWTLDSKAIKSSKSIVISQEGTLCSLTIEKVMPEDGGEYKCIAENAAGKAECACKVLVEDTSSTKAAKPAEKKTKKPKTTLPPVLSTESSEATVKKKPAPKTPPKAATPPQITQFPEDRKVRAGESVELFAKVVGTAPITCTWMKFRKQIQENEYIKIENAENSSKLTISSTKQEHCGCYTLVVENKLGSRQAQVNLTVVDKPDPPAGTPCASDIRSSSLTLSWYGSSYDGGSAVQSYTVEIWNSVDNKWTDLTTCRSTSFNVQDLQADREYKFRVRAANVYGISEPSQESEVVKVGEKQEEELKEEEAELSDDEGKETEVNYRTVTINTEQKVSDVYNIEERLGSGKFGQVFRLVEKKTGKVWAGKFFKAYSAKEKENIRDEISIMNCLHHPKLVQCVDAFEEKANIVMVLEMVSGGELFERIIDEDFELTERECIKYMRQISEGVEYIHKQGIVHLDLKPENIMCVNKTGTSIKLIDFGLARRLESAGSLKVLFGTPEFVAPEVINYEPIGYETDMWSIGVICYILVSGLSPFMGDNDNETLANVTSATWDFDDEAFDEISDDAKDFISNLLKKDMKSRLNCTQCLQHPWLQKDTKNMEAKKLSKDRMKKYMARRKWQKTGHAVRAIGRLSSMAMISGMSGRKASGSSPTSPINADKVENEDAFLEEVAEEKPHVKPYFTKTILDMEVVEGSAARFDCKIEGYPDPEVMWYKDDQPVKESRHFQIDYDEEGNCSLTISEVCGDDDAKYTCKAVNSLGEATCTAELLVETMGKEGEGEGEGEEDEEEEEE
From the text: as §1

[4] = target: Proteinkinase C (PKC); assay: Enzyme assay: inhibition of protein kinase C activated with phosphatidylserine and diacylglycerol (according to EP-A-0 255 126); format: biochemical
[5] = target: tyrosinspezifischen Kinase (T-Kinase); details: read-out: Inhibierung von Proteinkinasen (IC50, µM) T-Kinase; value marked *: J. Antibiot. 1987, 40, 1782; cited from earlier work

Row | SMILES | IC50 [1] [µM] | IC50 [2] [µM] | IC50 [3] [µM] | IC50 ([4]; PKC activated with Phosphatidylserin and Diacylglycerol, read-out: 50%ige Inhibierung bei einer Konzentration von) [µM] | IC50 ([4]; read-out: Inhibierung von Proteinkinasen (IC50, µM) PKC) [µM] | IC50 [5] [µM]
1 | Cn1c2ccccc2c2c3c(c4c5ccccc5n(CCC#N)c4c21)CNC3=O [Beispiel 2, 12-(2-Cyanoethyl)-6,7,12,13-tetrahydro-13-methyl-5-oxo-5H-indolo[2,3-a]pyrrolo[3,4-c]carbazol] | 25 | 6.2 | 5.8 | 0.02 | 0.02 | 
2 | CN[C@@H]1C[C@H]2O[C@@](C)([C@@H]1OC)n1c3ccccc3c3c4c(c5c6ccccc6n2c5c31)C(=O)NC4 [Staurosporin] |  |  |  |  |  | 0.006
